Patent US9447086B2, “6-amino acid heteroaryldihydropyrimidines for the treatment and prophylaxis of hepatitis B virus infection” (priority 2012, dated 2016)
Values after ≈ are worked out from the molar mass of the structure shown.

How the values were obtained:
[1] = Metabolic stability study in human microsome; assay type: in vitro ADME
Summary of the method: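 Depletion of 1 μM compound followed by LC-MS/MS over 0–30 min (0, 3, 6, 9, 15, 30 min) after methanol quench. Incubations at 37 °C, pH 7.4 phosphate buffer, 0.5 mg/mL microsomal protein, with NADPH (1 mM) or a regenerating system as cofactor; controls lacked cofactor.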

HBV [2] = assay: Anti-HBV activity in vitro in HepG2.2.15 cells (extracellular HBV DNA by qPCR); assay type: cell-based, Hepatitis B virus; conditions: Hepatitis B virus; HepG2.2.15 cells; in-house data; read-out: EC50
Summary of the method: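 Supernatant HBV DNA was measured by qPCR after viral DNA extraction. Samples came from 5-day cultures of HepG2.2.15 cells, an HBV-genome-transfected HepG2 line, exposed to half-log compound dilutions in medium containing 0.5% DMSO.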

[3] = Cytotoxicity (CC50) in HepDE19 cells, CCK-8 cell viability; assay type: cell-based; conditions: human, HepDE19 cells; read-out: CC50
From the text: HepG2.2.15 and HepDE19 are stably-transfected cell lines containing the HBV genome. Both cell lines are derived from the hepatoblastoma cell line Hep G2 (American Type Culture Collection, ATCC® HB-8065™) by the published procedures described in references: MA Selles et al. Proc. Natl. Acad. Sci. USA 1987, 84, 1005-1009 and H Guo et al. Journal of Virology 2007, 81, 12472-12484, respectively. Both cell lines were maintained in Dulbecco's modified Eagle's medium (DMEM)-F12 medium supplemented with 10% fetal bovine serum, 100 U/mL penicillin, 100 μg/mL streptomycin, and 0.5 mg/mL of G418.
Five days after treatment, cell viability was measured by addition of 20 μL of CCK-8 reagent. Two hours after incubation at 37° C., the absorbance at wavelengths of 450 nm and 630 nm (OD450 and OD630) was recorded by a plate reader.

HBV [4] = assay: Selectivity index (CC50 value/EC50 value); assay type: cell-based, Hepatitis B virus
From the text: Based on FDA guidance, in order to support clinical testing in humans, the assessment of acceptable risk-benefit has to be achieved by providing clear evidence of in vitro antiviral activity (EC50) and cytotoxicity (CC50). It is important to establish that an investigational product has antiviral activity at concentrations that can be achieved in vivo without inducing toxic effects to cells. Furthermore, in a cell culture model, apparent antiviral activity of an investigational product can be the result of host cell death after exposure to the product. The relative effectiveness of the compound in inhibiting viral replication compared to inducing cell death is defined as the selectivity index (CC50 value/EC50 value). It is desirable to have a high selectivity index giving maximum antiviral activity with minimal cell toxicity.
The relative effectiveness of the compound in inhibiting viral replication compared to inducing cell death is defined as the selectivity index (CC50 value/EC50 value). It is desirable to have a high selectivity index giving maximum antiviral activity with minimal cell toxicity.

[5] = Lyophilisation solubility assay (Lysa); assay type: physicochemical; conditions: phosphate buffer, pH 6.5, aqueous buffer, thermodynamic from solid
Summary of the method: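 Solubility in μg/mL is read by UV or HPLC-UV on filtrate, neat and diluted 1/10. Before filtration, the residue from evaporated 10 mM DMSO stock was taken up in pH 6.5 0.05 M phosphate buffer, then stirred 1 h, shaken 2 h and stood overnight, in duplicate.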

Compound | Human Hepatic Clearance [1] | EC50 (HBV [2]) | CC50 at 5 days [3] | Selectivity index (CC50/EC50) (HBV [4]) | solubility thermodynamic [5]
CCOC(=O)C1=C(CN2CCOC[C@H]2C(=O)O)NC(c2nccs2)=N[C@H]1c1ccc(Br)c(F)c1 [Example 52, (S)-4-[(S)-6-(4-Bromo-3-fluoro-phenyl)-5-ethoxycarbonyl-2-thiazol-2-yl-3,6-dihydro-pyrimidin-4-ylmethyl]-morpholine-3-carboxylic acid] | 4.03 mL/min/kg | 0.003 µM | 14 µM | 4693 | > 665 µg/mL
COC(=O)C1=C(CN2CCOC[C@H]2C(=O)O)NC(c2nccs2)=N[C@H]1c1ccc(Br)cc1F [Example 94, (S)-4-[(R)-6-(4-Bromo-2-fluoro-phenyl)-5-methoxycarbonyl-2-thiazol-2-yl-3,6-dihydro-pyrimidin-4-ylmethyl]-morpholine-3-carboxylic acid] | 0.61 mL/min/kg | 0.02 µM | 92 µM | 4600 | > 677 µg/mL
COC(=O)C1=C(CN2CC(F)(F)C[C@H]2C(=O)O)NC(c2nc(C3CC3)cs2)=N[C@H]1c1ccc(F)cc1Cl [Example 10, (R)-6-((S)-2-Carboxy-4,4-difluoro-pyrrolidin-1-ylmethyl)-4-(2-chloro-4-fluoro-phenyl)-2-(4-cyclopropyl-thiazol-2-yl)-1,4-dihydro-pyrimidine-5-carboxylic acid methyl ester] | 8.76 mL/min/kg | 0.0073 µM | 39 µM | 5342 | 246 µg/mL (≈ 443 µM)
COC(=O)C1=C(CN2CC(F)(F)C[C@H]2C(=O)O)NC(c2nc(C(F)(F)F)cs2)=N[C@H]1c1ccc(F)cc1Cl [Example 25, (R)-6-((S)-2-Carboxy-4,4-difluoro-pyrrolidin-1-ylmethyl)-4-(2-chloro-4-fluoro-phenyl)-2-(4-trifluoromethyl-thiazol-2-yl)-1,4-dihydro-pyrimidine-5-carboxylic acid methyl ester] | 9.34 mL/min/kg | 0.005 µM | > 100 µM | >20000 | 546 µg/mL (≈ 937 µM)
CCOC(=O)C1=C(CN2CCO[C@H](C)[C@H]2C(=O)O)NC(c2nccs2)=N[C@H]1c1cccc(F)c1Cl [Example 118, (2R,3S)-4-[(R)-6-(2-Chloro-3-fluoro-phenyl)-5-ethoxycarbonyl-2-thiazol-2-yl-3,6-dihydro-pyrimidin-4-ylmethyl]-2-methyl-morpholine-3-carboxylic acid] | 0.1 mL/min/kg | 0.0005 µM | > 100 µM | >200000 | > 630 µg/mL
COC(=O)C1=C(CN2CCOC[C@H]2C(=O)O)NC(c2nccs2)=N[C@H]1c1ccccc1Br [Example 71, (S)-4-[(R)-6-(2-Bromo-phenyl)-5-methoxycarbonyl-2-thiazol-2-yl-3,6-dihydro-pyrimidin-4-ylmethyl]-morpholine-3-carboxylic acid] | 2.81 mL/min/kg | 0.0048 µM | > 100 µM | >20833 | > 642 µg/mL
COC(=O)C1=C(CN2CC(F)(F)C[C@H]2C(=O)O)NC(c2ncoc2C)=N[C@H]1c1ccc(F)cc1Cl [Example 102, (R)-6-((5)-2-Carboxy-4,4-difluoro-pyrrolidin-1-ylmethyl)-4-(2-chloro-4-fluoro-phenyl)-2-(5-methyl-oxazol-4-yl)-1,4-dihydro-pyrimidine-5-carboxylic acid methyl ester] | 0.97 mL/min/kg | 0.009 µM | 23 µM | 2599 | > 635 µg/mL
CCOC(=O)C1=C(CN2CCO[C@H](C)[C@H]2C(=O)O)NC(c2nccs2)=N[C@H]1c1ccccc1Cl [Example 117, (2R,3S)-4-[(R)-6-(2-Chloro-phenyl)-5-ethoxycarbonyl-2-thiazol-2-yl-3,6-dihydro-pyrimidin-4-ylmethyl]-2-methyl-morpholine-3-carboxylic acid] | 0 mL/min/kg | 0.0015 µM | > 100 µM | 66667 | > 628 µg/mL
CCOC(=O)C1=C(CN2CCOC[C@H]2C(=O)O)NC(c2nccs2)=N[C@H]1c1cccc(F)c1 [Example 53, (S)-4-[(S)-5-Ethoxycarbonyl-6-(3-fluoro-phenyl)-2-thiazol-2-yl-3,6-dihydro-pyrimidin-4-ylmethyl]-morpholine-3-carboxylic acid] | 0 mL/min/kg | 0.014 µM | 69 µM | 4769 | > 621 µg/mL
CCOC(=O)C1=C(CN2CC(F)(F)CC[C@H]2C(=O)O)NC(c2nccs2)=N[C@H]1c1ccc(F)cc1Br [Example 107, (R)-4-(2-Bromo-4-fluoro-phenyl)-6-((S)-2-carboxy-5,5-difluoro-piperidin-1-ylmethyl)-2-thiazol-2-yl-1,4-dihydro-pyrimidine-5-carboxylic acid ethyl ester] | 1.89 mL/min/kg | 0.0015 µM | 24 µM | 16000 | 510 µg/mL (≈ 868 µM)
COC(=O)C1=C(CN2CCO[C@H](C)[C@H]2C(=O)O)NC(c2nccs2)=N[C@H]1c1ccc(F)c(F)c1F [Example 114, (2R,3S)-4-[(R)-5-Methoxycarbonyl-2-thiazol-2-yl-6-(2,3,4-trifluoro-phenyl)-3,6-dihydro-pyrimidin-4-ylmethyl]-2-methyl-morpholine-3-carboxylic acid] | 0 mL/min/kg | 0.0093 µM | > 100 µM | >10753 | > 617 µg/mL
CCOC(=O)C1=C(CN2CCOC[C@H]2C(=O)O)NC(c2nccs2)=N[C@H]1c1ccc(Br)cc1F [Example 93, (S)-4-[(R)-6-(4-Bromo-2-fluoro-phenyl)-5-ethoxycarbonyl-2-thiazol-2-yl-3,6-dihydro-pyrimidin-4-ylmethyl]-morpholine-3-carboxylic acid] | 1.24 mL/min/kg | 0.0043 µM | 30 µM | 6977 | > 690 µg/mL
COC(=O)C1=C(CN2CCOC[C@H]2C(=O)O)NC(c2ncoc2C)=N[C@H]1c1ccc(F)cc1Br [Example 65, (S)-4-[(R)-6-(2-Bromo-4-fluoro-phenyl)-5-methoxycarbonyl-2-(5-methyl-oxazol-4-yl)-3,6-dihydro-pyrimidin-4-ylmethyl]-morpholine-3-carboxylic acid] | 1.67 mL/min/kg | 0.0076 µM | > 100 µM | >13157 | > 678 µg/mL
COC(=O)C1=C(CN2CC(F)(F)C[C@H]2C(=O)O)NC(c2nccn2C)=N[C@H]1c1ccc(F)cc1Cl [Example 32, (R)-6-((S)-2-Carboxy-4,4-difluoro-pyrrolidin-1-ylmethyl)-4-(2-chloro-4-fluoro-phenyl)-2-(1-methyl-1H-imidazol-2-yl)-1,4-dihydro-pyrimidine-5-carboxylic acid methyl ester] | 5.04 mL/min/kg | 0.013 µM | 40 µM | 3125 | 632 µg/mL (≈ 1230 µM)
COC(=O)C1=C(CN2CC(F)(F)C[C@H]2C(=O)O)NC(c2nccs2)=N[C@H]1c1ccc(F)c(F)c1Cl [Example 74, (R)-6-((S)-2-Carboxy-4,4-difluoro-pyrrolidin-1-ylmethyl)-4-(2-chloro-3,4-difluoro-phenyl)-2-thiazol-2-yl-1,4-dihydro-pyrimidine-5-carboxylic acid methyl ester] | 0.51 mL/min/kg | 0.0021 µM | 72 µM | 34286 | > 655 µg/mL
